Legend:
[1] = tested on: voltage activated K+ currents (Islow, Ifast) of small diameter Dorsal Root Ganglia neurons (sdDRGns); test: whole-cell voltage-clamp of voltage activated K+ currents in sdDRGns; assay type: cell-based, rat
[2] = tested on: K+ currents of small diameter dorsal-root ganglion neuron; test: voltage dependence of steady state of inactivation of K+ currents in sdDRGn; assay type: cell-based, rat; details: sdDRGn
Excerpt: (§1) One can observe a shift to hyperpolarized values during the nitenin treatment. The relationships were better fit with the sum of two Boltzmann functions, showing that in both conditions there are two components: one more hyperpolarized component (component 1) and one other more depolarized component (component 2).
as §1, with “treatment with the compound of formula VI.” for “nitenin treatment.”
as §1, with “treatment with the compound of formula VII.” for “nitenin treatment.”
as §1, with “treatment with the compound of formula VIII.” for “nitenin treatment.”
For the electrophysiological recordings of the ex vivo material, voltage-clamp recordings were performed on neurons isolated from rat DRGs (and TGs). Recordings were performed from the soma that often contained the proximal fraction of axon, 1 hour after the end of the cell isolation process (includes enzymatic and mechanical treatment).

## O=C1OC(CO)CC1=CCCc1ccoc1 (centres unmarked) [compound of formula VIII-A]
[1]; 6.5 μg/ml, 29.4 μM
  time constant τ of the sensitive current (current subtraction, single-exponential fit): ~450 ms
[2]; 6.5 μg/ml, 29.4 μM, control −18.1
  Vh2 of steady state inactivation: −35.5 mV
[2]; 6.5 μg/ml, 29.4 μM, control −53.6
  Vh1 of steady state inactivation: −88.9 mV

## C/C(=C\C1OC(=O)CC1O)CCCc1ccoc1 (centres unmarked) [compound of formula VII]
[2]; 0.1 μg/ml, 399 nM, control −13.7
  Vh2 of steady state inactivation: −32.4 mV
[2]; 0.1 μg/ml, 399 nM, control −64.1
  Vh1 of steady state inactivation: −92.6 mV

## C=CC1OC(=O)CC1O (centres unmarked) [compound of formula VI]
[1]; 10 μg/ml, 77.9 μM
  time constant τ of the sensitive current (current subtraction, single-exponential fit): ~795 ms
[2]; 10 μg/ml, 77.9 μM, control −23.9
  Vh2 of steady state inactivation: −40.5 mV
[2]; 10 μg/ml, 77.9 μM, control −91.0
  Vh1 of steady state inactivation: −102.9 mV
